Test results as given in US11491146B2, “Therapeutic methods and combinations” (priority 2017, dated 2022).
Where “and” joins values, the source holds several entries; their conditions need not be identical. Equal entries are not always repeated. Where two headings read alike, the source gives them in different places.

Key:
VIM-2 [1] = biological target: T1, VIM-2 (Pseudomonas aeruginosa, UniProt Q9K2N0); assay: Single dose enzymatic inhibition assay against VIM2 (nitrocefin hydrolysis); assay type: biochemical, P. aeruginosa; settings: for VIM2 inhibition in words: single dose, 50 μM
Method: (§1) For our biochemical assay, the blavmugene, from a clinical strain of P. aeruginosa, was expressed using the pET24a (+) vector [20]. The pET24a-VIM-2 plasmid was transformed into competent BL21 (DE3) E. coli cells. The cells were plated onto an LB-agar plate with kanamycin (25 μg/mL) and incubated overnight at 37° C. A single colony was used to inoculate 50 mL of LB, containing 25 μg/mL kanamycin, and the culture was shaken overnight at 37° C. From the overnight culture, 10 mL were transferred to 4×1 L LB medium containing 25 μg/mL kanamycin. The cultures were grown at 37° C. until the optical density (OD600 nm) reached 0.6-0.8, at which point protein production was induced with IPTG (0.5 mM) and ZnC12 (100 μM). The temperature was reduced to 20° C., and the cells were shaken for an additional 18 h. The cultures were harvested by centrifugation (8K×g) for 10 min at 4° C. The resulting pellets were re-suspended with 25 mL of 50 mM HEPES, pH 7.5, containing 500 mM NaCl (buffer B). The cells were lysed with three passes through a French Press. The lysate was centrifuged (15 Kxg) for 30 min at 4° C. The supernatant was dialyzed against 2 L of 50 mM HEPES, pH 7.5 (buffer A), for 4 h. Buffer A was used to equilibrate a 25 mL Q-Sepharose column using an FPLC. The sample was loaded onto the column, and proteins were eluted with a linear gradient 0-500 mM NaCl with buffer B. Fractions containing VIM2, determined by SDS-PAGE, were pooled and concentrated to 2-3 mL in an Amicon ultraconcentrator equipped YM-10 membrane. Further purification was conducted with a Sephacryl S-200 gel filtration column using 50 mM HEPES, pH 7.5, containing 150 mM NaCl.

VIM-2 expressing E. coli = assay: EC50* for restoring amoxicillin growth inhibition in VIM-2 expressing E. coli; assay type: cell-based; settings: in the presence of 50 μM amoxicillin
Method: (§2) The cells were cultured on 0.8 g/100 ml nutrient agar plate at pH 7.0 and 37° C. The bacterial growth medium was diluted in nutrient broth (NB) to a concentration absorbance of 1.5 at OD600 nm and incubated overnight in 10 ml capped culture tubes with shaking. An overnight culture of the bacterial strain was sub-cultured to an optical density of 0.06 at OD600 nm into the NB medium and was then seeded at max 200 μl into the wells of a 96 well microtiter plate. Samples were then incubated at 37° C. and shaken at 200 rpm for 18 h.
The bacterial culture was prepared as described above. […] The mixing of the bacterial culture plate were then incubated in a 37° C. […] shaken incubator at 200 rpm for 18 h before measuring their optical density at 600 nm.

VIM-2 [2] = biological target: T1, VIM-2; assay: Dose response enzymatic inhibition assay and inhibition constant against VIM2; assay type: biochemical, P. aeruginosa; settings: for Ligand efficiency (LE): LE = −1.38 log (Ki)/N, N = number of heavy atoms
Method: as §1
The relative change in absorbance was evaluated as percentage inhibition and the IC50 was determined by fitting the data to a sigmoidal dose-response curve. The enzyme inhibition constant (Ki) was derived from initial-velocity measurements by nonlinear regression using competitive-inhibition enzyme kinetics using Graphpad Prism 6.

E. coli = assay: Cell viability assay, wild type E. coli growth; assay type: cell-based; settings: for relative percentage growth compared to untreated cells: E. coli
Method: as §2

HDACs = settings: earlier study; cited from earlier work
VIM2 expressing E. coli = assay type: cell-based
Method: as §2

HEK293 cells [3] = assay: Cytotoxicity by MTT cell proliferation assay in HEK293; settings: HEK293 CC50 ratio
Method: (§3) Human embryonic kidney cell line (HEK293) was grown in DMEM (Dulbecco's modifications of eagle's medium with L-glutamine & 4.5 G/L glucose) supplemented with fetal bovine serum 100 units/ml of penicillin G and 0.1 mg/ml of streptomycin sulfate in a humidified atmosphere of a 5% CO2 at 37° C.
(§4) Cell proliferations were measured by counting viable cells by using the 3(4,5dimethylthiazol-2-yl)-2,5-diphenyltetrazolium bromide (MTT) (Sigma-Aldrich, St. Louis, Mo.) colorimetric dye-reduction assay. […] After 72 hrs, 10 μl of MTT (5 mg/ml) dye was added to each well and the plates were incubated for 4 hours at 37° C. in 5% CO2 incubator. After centrifuge with 1,500 rpm/10 mins, the supernatant was removed and 200 μl of dimethyl sulfoxide (DMSO) was added and the plates were gently shaken to solubilize the formed formazan for 30 min. The absorbance was measured using a micro-plate reader at wave length 590 nm. The CC50 were obtained by fitting the data to a sigmoidal dose-response equation using Graphpad Prism 6.

HEK293 cells [4] = tested on: HEK293 cells
Method: as §3, §4

VIM-2 [5] = biological target: T1, VIM-2; settings: literature value; read-out: IC50 in parenthesis reported from ref. 3; cited from earlier work
[6] = Cytotoxicity by MTT cell proliferation assay in HEK293; settings: human, HEK293 cells
Method: as §3, §4

[7] = 50 μM compound, 5 nM VIM-2, 10 μM nitrocefin, 30 mins
[8] = 5 nM VIM-2, 10 μM nitrocefin, read-out: IC50
[9] = competitive-inhibition fit, nitrocefin substrate, read-out: Ki

Row | Compound | % Inhibition at 50 μM (VIM-2 [1]; [7]) | relative percentage growth compared to untreated cells (E. coli; Amox(+), 50 μM amoxicillin) | relative percentage growth compared to untreated cells (E. coli; Amox(−)) | relative percentage growth compared to untreated cells (VIM2 expressing E. coli; Amox(+), 50 μM amoxicillin) | relative percentage growth compared to untreated cells (VIM2 expressing E. coli; Amox(−)) | VIM2 inhibition in words (VIM-2 [1]) | inhibition at 50 µM (VIM-2 [1]; [7]) | further results
1 | Zinc pyrithione [Compound 2a] | 15% | – | – | – | – | – | – | –
2 | O=C(O)c1cccc(=S)n1O [Compound 3, 1-Hydroxypyridine-2(1H)-thiones-6-carboxylic acid] | 98% | 3.6% | 77% | 3.2% | 61% | – | – | EC50 (VIM-2 expressing E. coli): 100 nM and 110 nM; IC50 (VIM-2 [2]; [8]): 270 nM; Ligand efficiency (LE) (VIM-2 [2]): 0.99; Ki (VIM-2 [2]; [9]): 13 nM; IC50 (VIM-2 [2]; read-out: IC50): 270 nM; Ki (VIM-2 [2]; read-out: Ki): 13 nM; antibacterial activity on their own, in words (E. coli; wild type E. coli): moderate antibacterial activity; range selectivity among all eleven HDACs (HDACs): ~5000 fold; antibacterial activity on their own, in words (VIM2 expressing E. coli): moderate antibacterial activity; synergistic growth inhibition with amoxicillin (VIM2 expressing E. coli): over 90%; fold change in cytotoxicity from parent compound 2 (HEK293 cells [3]): 6900 fold; CC50 (HEK293 cells [4]): 97000 nM
3 | O=C(N[C@@H](C(=O)O)c1ccccc1)c1cccc(=S)n1O [Compound 5] | 34% | – | – | – | – | Moderate inhibitory activities | – | fold loss of Ki relative to compound 3 (VIM-2 [2]): 576 fold; IC50 (VIM-2 [2]; [8]): 67900 nM; Ligand efficiency (LE) (VIM-2 [2]): 0.34; Ki (VIM-2 [2]; [9]): 7500 nM
4 | O=C(NC(C(=O)O)c1ccccc1)c1ccc(=O)n(O)c1 (stereo not drawn) [Compound 1, 2-(1-Hydroxy-6-oxo-1,6-dihydropyridine-3-carboxamido)-2-phenylacetic acid] | – | – | – | – | – | Poor inhibition | 12% | –
5 | C[C@H](CS)C(=O)N1CCC[C@H]1C(=O)O [L-Captopril] | 98% | – | – | – | – | – | – | IC50 (VIM-2 [5]): 4400 nM; antibacterial activity on their own, in words (E. coli; wild type E. coli): moderate antibacterial activity; antibacterial activity on their own, in words (VIM2 expressing E. coli): moderate antibacterial activity; synergistic growth inhibition with amoxicillin (VIM2 expressing E. coli): over 90%
6 | O=C(O)[C@H]1/C(=C/CO)O[C@@H]2CC(=O)N21 [Clavulanate] | 15% | 2.9% | 86% | 57% | 93% | – | ≤ 25% | –
7 | O=C(CCCCCCC(=O)Nc1ccccc1)NO [SAHA] | 29% | 3.6% | 83% | 60% | 79% | Poor inhibition | – | –
8 | On1ccccc1=S [Compound 2b, 1-Hydroxypyridine-2-thione] | – | – | – | – | – | – | – | IC50 (VIM-2 [2]): 908 nM; Ki (VIM-2 [2]): 217 nM; inhibition at 50 µM (VIM-2 [1]): 93%; growth inhibition activity on its own (E. coli; wild type E. coli, compound alone): over 89%; growth inhibition activity on its own (VIM2 expressing E. coli; compound alone): over 89%; CC50 at 72 h [6]: 14 nM
9 | CC1(C)S[C@@H]2[C@H](NC(=O)[C@H](N)c3ccc(O)cc3)C(=O)N2[C@H]1C(=O)O [Amox, amoxicillin] | – | 3.6% | – | 77% | – | – | – | growth inhibition by amoxicillin alone (E. coli; wild type E. coli, 50 μM): over 96%
10 | C[C@]1(Cn2ccnn2)[C@H](C(=O)O)N2C(=O)C[C@H]2S1(=O)=O [Tazobactam] | 25% | – | – | – | – | – | ≤ 25% | –
